This is an account of results in ChEMBL document CHEMBL1148065, “Two new flavones from Calliandra californica” (1994).

The structures appear in SMILES notation. Activity calls are given as the source filed them. The rule behind the calls is not given here.

The subject of assay [1] is Bacillus subtilis. The assay is described as follows: Antimicrobial activity against Bacillus subtilis at 1 mg/disk. In kind it is functional.
Assay [2] has as its system Staphylococcus aureus. The assay is described as follows: Antimicrobial activity against Staphylococcus aureus at 1 mg/disk. It is filed as functional.

Consider `COc1ccc2c(=O)cc(-c3cc(OC)c(OC)cc3OC)oc2c1`, for which the outcome in assay [1] and in assay [2] was inactive.

Consider `COc1cc(O)c2c(=O)cc(-c3cc(OC)c(OC)cc3OC)oc2c1`, for which the “inhibition zone (IZ)” value in assay [1] is given as 11 mm; in assay [2] it was 8 mm.
